Several values for one entry are separate records, joined by “and”; a condition that tells them apart may be missing. Equal entries are not always repeated. Entries after “also recorded” stand apart in the source; their conditions may differ. Where two headings read alike, the source gives them in different places.

The conditions of series [1]: cited from earlier work.
The test system of series [2] is Taxol binding site in living cells. The conditions noted are these: previously reported; read-out: Ki by confocal microscopy; cited from earlier work.
For series [3], the system named is microtubules (taxane binding site) in living HeLa cells. Briefly: Competition binding assay with PB-GABA-Taxol in living HeLa cells (cellular Ki). The conditions noted are these: for Ki: read-out: cellular Ki, PB-GABA-Taxol 1.5 μM, verapamil 100 μM, 37° C., 4% FBS, 3 h.
Experimental: In this assay the cellular Kd was measured by varying the concentration of the fluorescent probe added to cells at equilibrium as established by kinetic assays of probe uptake. Total binding of this probe to specific and non-specific sites in cells in the presence of the efflux inhibitor verapamil was determined by flow cytometry. Non-specific binding was quantified separately by addition of excess paclitaxel with the probe under the same conditions. Subtraction of the linear non-specific binding contribution from the total binding curve was used analyze specific binding of the probe to tubulin of microtubules. Measurement of this cellular dissociation constant under equilibrium conditions further allowed conversion of the half-maximal inhibitory concentration (IC50) of unlabeled compounds into cellular inhibitory constants using an adaptation of the Cheng-Prusoff equation^44 for competitive modulators (Ki) or the allosteric equation^45 for non-competitive modulators (Kb and the cooperativity factor α) as implemented by GraphPad Prism.
The test system of series [4] is microtubule network of HeLa cells (mScarlet-α-Tubulin). Briefly: Confocal microscopy of HeLa cells transfected with mScarlet-α-Tubulin. The series is classed as cell-based. The conditions noted are these: 1 h at 37° C. As for the experimental part: (FIG. 28C) Characterization of fluorescent microtubule phenotypes in HeLa cells transiently transfected with mScarlet-a-Tubulin and treated with the microtubule modulators (1 h at 37° C.). […] Scale bars=10 μm.
Cells were washed with PBS before treatment with PB-GABA-Taxol (100 nM) and (±)-verapamil hydrochloride (100 μM), with or without paclitaxel (10 μM) as a competitor, in phenol red-free DMEM supplemented with 10% FBS. Cells were incubated at 37° C. for 3 h prior to imaging by confocal microscopy. For experiments using HeLa cells transfected with mScarlet-α-tubulin, transient transfection was performed using a Invitrogen Lipofectamine 3000 Transfection kit (Thermo, L3000-075). Transfection used a 1× dose of lipid in OptiMEM (4% FBS) for 18 hours before washing of cells with PBS and treatment with the microtubule modulator for 1 h at 37° C.

Series [5] deals with crosslinked / purified microtubules. The conditions noted are these: previously reported; read-out: biochemical Ki for microtubules; cited from earlier work.
In a further series the target is albumin (Homo sapiens, UniProt P02768). To be noted: cited from earlier work.
Series [6] concerns the target C1 domain of human PKD (purified C1AB domain) (Homo sapiens, UniProt Q15139). Briefly: [3H]PDBu competition assay with purified C1AB domain of PKD. The format is binding. As for the experimental part:
Affinities were measured with a radioactive […]
The results of the biochemical binding assays with cellular binding assays were used to quantitatively investigate differences between conventional biochemical measurements of Ki values with this novel method for determination of Ki values in cellule.

In another series the test system is Jurkat cells. Put plainly: Cellular viability assay, Jurkat lymphocytes, 48 h, flow cytometry (Example 2). The format is cell-based. To be noted: Homo sapiens, Jurkat, read-out: toxicity towards Jurkat cells, IC50. As for the experimental part:
The impact of membrane transporters on the toxicity profile of 49 was also studied.
Jurkat lymphocytes were seeded into a 96-well plate in fresh complete medium at 2.5×10^5 cells/mL and 200 μL per well. All compounds were serial diluted in DMSO and added to complete media to achieve a 1:1000 dilution factor (0.10% DMSO in each well). […] The total cell-count for each well was determined by flow cytometry and staining with propidium iodide was used to identify populations of live cells (only dead cells are stained by PI). Counts of viable cells for each treatment, determined in triplicate, were used to generate dose-response curves. These curves were fitted with non-linear regression using an inhibitor vs. response variable slope […] model (GraphPad Prism 9) to determine IC50 values.

In a further series the test system is HEK293 cells. Put plainly: Viability of HEK293 cells during probe treatment by flow cytometry. The series is classed as cell-based. The conditions noted are these: 33 at 1 μM, verapamil 0, 25 or 100 μM, 1 h. As for the experimental part:
FIGS. 14A and 14B show quantification of fluorescence (FIG. 14A) and viability (FIG. 14B) upon treatment of HEK293 cells with compound 33 (1 μM) and verapamil (0, 25 or 100 μM) for 1 h. Total [DMSO]=0.2%. Error bars represent SD (N=3). Statistical significance analyzed by one-way ANOVA (GraphPad Prism 9). **, P<0.01; ****, P<0.0001. Samples were analyzed with a Beckman Coulter Cytoflex flow cytometer. (Ex. 405 nm/Em. […]). […] Compound 33 is non-toxic under these conditions.
FIGS. 16A-16D show quantification of non-specific binding and cell viability after treatment for 1 h at 37° C. with compound 33 (2-fold serial dilution from 5 μM) and verapamil (75 μM) in the presence of different competitors (PMA or non-fluorescent PB-carbamate 8, at 0, 5 and 10 μM). Total [DMSO]=0.3%. (FIG. 16A) Parental HEK293 cells analyzed after treatment with 33 in the presence or absence of PMA or compound 8. […] Samples were analyzed with a Beckman Coulter Cytoflex flow cytometer and gated to analyze living cells (Ex. 405 nm; Em. 450/45 nm).
The efflux of this fluorescent probe was next studied by flow cytometry. […] The blue fluorescent signal (405 nm laser) of HEK293 cells overexpressing green fluorescent full-length PKCγ-EGFP was elucidated (the median protein concentration was determined to be ˜5.0 μM as measured by flow cytometry by comparison with Spherotech rainbow bead standards as described herein). […]

In the next series the target is T1, rat EGFP-N2-PKCγ (Rattus norvegicus, UniProt P63319).
T1 construct: transiently transfected with DNA encoding the full-length rat PKCγ-EGFP; host or cells: HEK293
Briefly: Confocal video microscopy of PKCγ trafficking in HEK293 cells. The series is classed as cell-based. The conditions noted are these: 33 at 1 μM, after 10 min. From the text:
Blue fluorescence of 33 is shown in the right panels (Ex. 405 nm, Em. 410-495 nm, Gain 50), green fluorescence of transiently transfected EGFP-N2-PKCγ protein is shown in the middle panels (Ex. 488 nm, Em. 500-650 nm, Gain 700), and DIC images are shown in the left panels. Trafficking of PKCγ-mEGFP protein to membranes induced by 33 can be observed Images were acquired with a Leica SP8 microscope (63× objective). Scale bar=25 μm.
It appears that this is due to efflux of this compound from cells mediated by efflux transporters such as Pgp. To explore this idea, two-color confocal video microscopy was used. Briefly, HEK293 cells were transiently transfected with commercially available plasmid DNA encoding rat PKCγ fused to GFP (EGFP-N2-PKCγ, Addgene Plasmid #21204).^84 The HEK293 cell line is known to expresses multiple efflux transporters including Pgp (MDR1/ABCB1).^85 The fluorescence of GFP was monitored by excitation with a 488 nm laser and emission collected between 500-650 nm. […] In addition, the cell morphology was recorded using differential interference contrast microscopy (DIC). The localization of the fluorescent probe and the GFP fusion protein was recorded using video confocal microscopy immediately after treatment of transfected cells with 33. […]

A further series addresses T2, C1A-C1A-EYFP (PKCγ) (UniProt P63319).
T2 construct: apparent Kd; other: verapamil 100 μM, 90 min, 37° C., DMEM high glucose, 4% FBS; half time (t1/2) of cellular fluorescence; other: 33 at 5 μM, verapamil 100 μM, room temperature; fused on or other part: EYFP at the C-terminus; the C1A module is present twice in one chain
Briefly: Cellular binding by flow cytometry, HEK293 cells expressing C1A-C1A-EYFP (PKCγ). The conditions noted are these: verapamil 100 μM. The source says:
The dissociation constant can be defined as the ratio of koff divided by kon. This value is also the concentration where the ligand occupies 50% of the receptor.^94 Kd is only meaningful when equilibrium is reached, where the ligand-receptor complex is formed at the same rate as it dissociates into free ligand and receptor (FIG. 15). This binding equilibrium is established when essentially no further change in the amount of bound complex is observed over time. To evaluate the time needed for equilibration, we treated HEK293 cells that overexpress C1A-C1A-EYFP (PKCγ) with 33 (0 and 5 μM) in the presence or absence of verapamil (100 μM) and cellular fluorescence was measured by flow cytometry as a function of time (FIG. 18A). […] This optimization was used to establish a 90 min equilibration period for further assay optimization.
The presence of fetal bovine serum (FBS) in the culture media also influenced the binding by sequestering the free ligand. The assay conditions were finalized using HEK293 cells incubated with the probe in the presence of verapamil for 90 min at 37° C. in DMEM media (high glucose, 4% FBS).

A further series has as its target T3, mouse PKCβI-mVenus (Mus musculus, UniProt P68404).
T3 construct: eight plasmids encoding full length mouse PKC isozymes fused to; expressed in transfected cells; host or cells: HEK293
Put plainly: Apparent cellular Kd by flow cytometry, HEK293 cells overexpressing PKCβI-mVenus (Example 2). The series is classed as binding. As for the experimental part:
The apparent Kd values of these fluorescent probes were measured using different PKC isozymes (e.g., PKCβI, FIGS. 20A-20D). HEK293 cells were transfected to overexpress PKCβ-mVenus and treated with probes in the presence of verapamil (100 μM) as an inhibitor of efflux.

The target in series [7] is PKC 11 (C1B domain, tyrosine at the 22 position). The conditions noted are these: phosphatidyl serine present, read-out: binding affinity (Kd) for DAG, cited from earlier work.

Chain of C1 domain of human PKD (purified C1AB domain) (Q15139 whole entry, the tested form may be a part): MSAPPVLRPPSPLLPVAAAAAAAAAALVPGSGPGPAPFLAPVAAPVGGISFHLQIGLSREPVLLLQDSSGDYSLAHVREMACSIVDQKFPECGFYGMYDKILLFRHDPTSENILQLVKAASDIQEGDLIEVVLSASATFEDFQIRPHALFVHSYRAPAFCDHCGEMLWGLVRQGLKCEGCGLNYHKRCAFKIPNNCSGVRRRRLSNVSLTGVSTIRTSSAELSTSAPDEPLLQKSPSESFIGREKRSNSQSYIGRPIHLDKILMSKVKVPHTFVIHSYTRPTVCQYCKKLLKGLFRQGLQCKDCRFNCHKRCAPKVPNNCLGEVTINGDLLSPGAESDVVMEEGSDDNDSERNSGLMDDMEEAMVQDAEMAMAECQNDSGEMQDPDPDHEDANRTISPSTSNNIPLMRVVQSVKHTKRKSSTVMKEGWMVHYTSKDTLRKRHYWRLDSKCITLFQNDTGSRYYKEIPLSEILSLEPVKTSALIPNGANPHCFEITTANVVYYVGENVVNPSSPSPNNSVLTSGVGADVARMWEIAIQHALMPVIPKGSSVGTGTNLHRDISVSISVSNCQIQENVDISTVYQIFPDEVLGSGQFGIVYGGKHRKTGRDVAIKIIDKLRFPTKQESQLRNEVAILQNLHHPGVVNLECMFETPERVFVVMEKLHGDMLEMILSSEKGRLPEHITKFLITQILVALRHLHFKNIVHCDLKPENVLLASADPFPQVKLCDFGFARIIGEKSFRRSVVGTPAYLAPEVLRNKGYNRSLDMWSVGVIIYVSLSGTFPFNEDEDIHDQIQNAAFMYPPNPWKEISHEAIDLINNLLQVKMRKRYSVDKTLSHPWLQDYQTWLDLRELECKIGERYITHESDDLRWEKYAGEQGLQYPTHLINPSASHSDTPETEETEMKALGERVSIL
T3 sequence (P68404 whole entry, the tested form may be a part): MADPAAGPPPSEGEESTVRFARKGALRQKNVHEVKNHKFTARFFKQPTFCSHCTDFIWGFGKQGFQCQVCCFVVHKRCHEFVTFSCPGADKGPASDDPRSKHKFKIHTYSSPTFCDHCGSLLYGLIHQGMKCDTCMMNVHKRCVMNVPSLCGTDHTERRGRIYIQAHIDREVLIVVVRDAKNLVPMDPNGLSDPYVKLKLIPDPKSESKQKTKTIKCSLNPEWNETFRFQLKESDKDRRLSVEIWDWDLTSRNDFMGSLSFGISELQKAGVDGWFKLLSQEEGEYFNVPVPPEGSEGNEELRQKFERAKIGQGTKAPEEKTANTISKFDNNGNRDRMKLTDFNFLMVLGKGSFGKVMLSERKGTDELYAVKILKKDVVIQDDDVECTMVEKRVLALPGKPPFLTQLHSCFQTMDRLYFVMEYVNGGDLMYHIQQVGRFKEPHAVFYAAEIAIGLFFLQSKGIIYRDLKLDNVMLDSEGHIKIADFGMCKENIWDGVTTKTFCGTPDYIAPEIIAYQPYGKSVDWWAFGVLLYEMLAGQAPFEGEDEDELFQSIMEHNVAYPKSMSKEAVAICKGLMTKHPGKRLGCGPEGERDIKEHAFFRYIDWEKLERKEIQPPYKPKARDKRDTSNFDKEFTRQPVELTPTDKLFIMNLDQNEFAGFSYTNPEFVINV
Chain of albumin (P02768 25-609, species assumed): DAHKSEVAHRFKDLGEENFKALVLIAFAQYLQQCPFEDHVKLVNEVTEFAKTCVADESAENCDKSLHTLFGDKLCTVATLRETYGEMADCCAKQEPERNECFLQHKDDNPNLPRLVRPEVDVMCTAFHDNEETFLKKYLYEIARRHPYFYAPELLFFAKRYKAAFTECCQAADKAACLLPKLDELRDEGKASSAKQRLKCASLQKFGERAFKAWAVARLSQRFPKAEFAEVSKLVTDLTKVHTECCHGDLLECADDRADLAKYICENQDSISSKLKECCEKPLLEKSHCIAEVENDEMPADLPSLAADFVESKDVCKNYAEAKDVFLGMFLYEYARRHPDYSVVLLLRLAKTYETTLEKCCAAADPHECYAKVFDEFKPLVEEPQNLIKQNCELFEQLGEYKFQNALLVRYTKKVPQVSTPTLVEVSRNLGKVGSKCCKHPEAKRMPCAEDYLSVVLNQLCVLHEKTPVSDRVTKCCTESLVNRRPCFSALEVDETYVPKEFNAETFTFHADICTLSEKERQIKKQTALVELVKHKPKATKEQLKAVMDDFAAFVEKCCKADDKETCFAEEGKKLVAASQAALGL

With `O=C(O)c1cc2cc(F)c(O)c(F)c2oc1=O` [Pacific Blue™], the “phenol pKa” value in [1] is recorded as 3.7.

With `C/C(=C\c1csc(C)n1)[C@@H]1C[C@@H]2O[C@]2(C)CCC[C@H](C)[C@H](O)[C@@H](C)C(=O)C(C)(C)[C@@H](O)CC(=O)N1` [ixabepilone], the Ki in series [2] was 7.6 ± 1.6 nM; in [3] it was 10 nM.

`CC(=O)O[C@H]1C(=O)[C@@]2(C)[C@H]([C@H](OC(=O)c3ccccc3)[C@]3(O)C[C@H](OC(=O)[C@H](O)[C@@H](NC(=O)c4ccccc4)c4ccccc4)C(C)=C1C3(C)C)[C@]1(OC(C)=O)CO[C@@H]1C[C@@H]2O` [paclitaxel]: in series [4], the fluorescent microtubule phenotype result is listed as “increased numbers of microtubule fibers”. The Ki is 19 nM and 27 nM and 31 nM in [5]; 22 nM in series [3]. Further, the Kd at albumin was 120 nM. Also, the results for the “decrease of apparent affinity vs incubation for 3 h or 4 h” value in [3] (incubation 1 h) and in [3] (incubation 2 h) were 3 fold and 2 fold, respectively. The “underestimation of cellular Ki” value in [3] (probe concentration 3 μM) was 12 fold. For the same compound, the “decrease of apparent affinity (cellular Ki) by ligand depletion” value in series [3] (σ=15% (150 nM β-tubulin/well)) amounted to 2.3 fold; in [3] (σ=30% (300 nM β-tubulin/well)), 4.7 fold.

For `CC1=C[C@H]2[C@@]3(O)[C@H](C)[C@@H](O)[C@]4(OC(=O)N(C)CCCCCCCCCCCCN(C)C(=O)c5cc6cc(F)c(O)c(F)c6oc5=O)[C@H]([C@@H]3C=C(CO)C[C@]2(O)C1=O)C4(C)C` [probe 33, (1aR,1bS,4aR,7aS,7bS,8R,9R,9aS)-4a,7b,9-trihydroxy-3-(hydroxymethyl)-1,1,6,8-tetramethyl-5-oxo-1,1a,1b,4,4a,5,7a,7b,8,9-decahydro-9aH-cyclopropa[3,4]benzo[1,2-e]azulen-9a-yl (12-(6,8-difluoro-7-hydroxy-N-methyl-2-oxo-2H-chromene-3-carboxamido)dodecyl)(methyl)carbamate], the Ki in [6] (Ki for purified C1AB domain of PKD) was 30 nM; in series [6] (read-out: Ki for purified C1AB domain of PKD), about 30 nM. In addition, the IC50 with Jurkat cells was about 12000 nM. In addition, in the series on HEK293 cells, the “toxicity to HEK293 cells” value was “non-toxic; also recorded: no toxicity”. For the same compound, on rat EGFP-N2-PKCγ, the “trafficking of PKCγ” value is on record as “translocation of PKCγ to the plasma membrane”. The “half time (t1/2) of cellular fluorescence” value at C1A-C1A-EYFP (PKCγ) (33 at 5 μM, room temperature) was “about 32 min”. Further, the Kd on C1A-C1A-EYFP (PKCγ) (90 min, 37° C., DMEM high glucose, 4% FBS, read-out: apparent Kd) is 6400 nM; at mouse PKCβI-mVenus, 2700 nM.

diacylglycerol [DAG]: the Kd in series [7] (tyrosine at the 22 position) is 780000 nM; in series [7] (tyrosine changed into tryptophan), 24000 nM.

The values above are taken from patent US20230146870A1, “METHOD TO QUANTIFY AFFINITY AND SELECTIVITY OF SMALL MOLECULES FOR PROTEINS IN LIVING CELLS” (Ohio State Innovation Foundation, priority 2021, published 2023).
